The values below come from ChEMBL document CHEMBL1143269, “2-(6-Phenyl-1H-indazol-3-yl)-1H-benzo[d]imidazoles: design and synthesis of a potent and isoform selective PKC-zeta inhibitor” (Bioorg Med Chem Lett, 2009).

For one assay, the species on record is Homo sapiens. The assay can be described thus: Selectivity ratio of IC50 for human CDK2 to IC50 for human PKCzeta.
Assay [1] has as its target T1, Protein kinase C zeta type (Homo sapiens, UniProt Q05513).
T1 sequence (Q05513 whole entry): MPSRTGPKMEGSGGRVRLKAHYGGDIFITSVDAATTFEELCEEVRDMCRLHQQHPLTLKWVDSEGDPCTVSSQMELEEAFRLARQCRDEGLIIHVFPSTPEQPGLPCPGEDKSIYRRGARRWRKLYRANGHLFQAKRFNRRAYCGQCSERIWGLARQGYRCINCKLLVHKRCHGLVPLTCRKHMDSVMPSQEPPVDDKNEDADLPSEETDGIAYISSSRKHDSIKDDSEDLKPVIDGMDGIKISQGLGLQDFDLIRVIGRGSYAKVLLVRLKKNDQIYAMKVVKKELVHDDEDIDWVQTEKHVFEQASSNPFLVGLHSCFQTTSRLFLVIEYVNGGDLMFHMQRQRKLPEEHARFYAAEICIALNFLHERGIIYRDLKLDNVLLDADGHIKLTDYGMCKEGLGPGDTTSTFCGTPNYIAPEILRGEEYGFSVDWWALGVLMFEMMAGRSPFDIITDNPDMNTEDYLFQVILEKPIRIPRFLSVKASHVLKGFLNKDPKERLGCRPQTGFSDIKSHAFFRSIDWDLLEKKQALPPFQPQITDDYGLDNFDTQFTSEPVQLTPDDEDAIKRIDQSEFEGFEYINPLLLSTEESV
Briefly: Inhibition of human PKCzeta.

Assay [2] addresses Cyclin-dependent kinase 2 (Homo sapiens, UniProt P24941). The assay can be described thus: Inhibition of human CDK2.
The nature of assay [3]: Inhibition of GSK3.
The target in assay [4] is Tyrosine-protein kinase CSK (Homo sapiens) (UniProt P41240). The assay can be described thus: Inhibition of CSK at 10 uM.
Assay [5] deals with Receptor-type tyrosine-protein kinase FLT3 (Homo sapiens) (UniProt P36888). The assay can be described thus: Inhibition of Flt3 at 10 uM.
A short description of assay [6]: Inhibition of rat CAMK2 at 10 uM.
The target in assay [7] is Epidermal growth factor receptor (Homo sapiens) (UniProt P00533). Briefly: Inhibition of EGFR at 10 uM.
Assay [8] addresses Proto-oncogene tyrosine-protein kinase receptor Ret (Homo sapiens) (UniProt P07949). The assay can be described thus: Inhibition of Ret at 10 uM.
Assay [9] deals with Tyrosine-protein kinase receptor UFO (Homo sapiens) (UniProt P30530). Briefly: Inhibition of Axl at 10 uM.
In assay [10] the target is Cytoplasmic tyrosine-protein kinase BMX (Homo sapiens) (UniProt P51813). The assay can be described thus: Inhibition of Bmx at 10 uM.
Assay [11] deals with RAF proto-oncogene serine/threonine-protein kinase (Homo sapiens) (UniProt P04049). Briefly: Inhibition of c-Raf at 10 uM.
Assay [12] concerns the target Tyrosine-protein kinase Fes/Fps (Homo sapiens) (UniProt P07332). The assay can be described thus: Inhibition of Fes at 10 uM.
The target in assay [13] is Aurora kinase A (Homo sapiens) (UniProt O14965). Briefly: Inhibition of Aurora A at 10 uM.
Assay [14] has as its target Tyrosine-protein kinase ABL1 (Homo sapiens) (UniProt P00519). The assay can be described thus: Inhibition of Abl at 10 uM.
The target of assay [15] is RAC-alpha serine/threonine-protein kinase (Homo sapiens) (UniProt P31749). Briefly: Inhibition of PKB alpha at 10 uM.
The target of assay [16] is Calcium/calmodulin-dependent protein kinase type IV (Homo sapiens) (UniProt Q16566). The assay can be described thus: Inhibition of CAMK4 at 10 uM.
For assay [17], the target named is Platelet-derived growth factor receptor beta (Homo sapiens) (UniProt P09619). The assay can be described thus: Inhibition of PDGFRbeta at 10 uM.
The target in assay [18] is Glycogen synthase kinase-3 beta (Homo sapiens) (UniProt P49841). The assay can be described thus: Inhibition of GSK3-beta at 10 uM.
Assay [19] addresses Dual specificity mitogen-activated protein kinase kinase 1 (Homo sapiens) (UniProt Q02750). The assay can be described thus: Inhibition of MEK1 at 10 uM.
The target of assay [20] is BDNF/NT-3 growth factors receptor (Homo sapiens) (UniProt Q16620). The assay can be described thus: Inhibition of TrkB at 10 uM.
Assay [21] has as its target Rho-associated protein kinase 2 (Homo sapiens) (UniProt O75116). Briefly: Inhibition of Rock2 at 10 uM.
Assay [22] in a line: Inhibition of CK2 at 10 uM.
The target of assay [23] is ALK tyrosine kinase receptor (Homo sapiens) (UniProt Q9UM73). The assay can be described thus: Inhibition of ALK at 10 uM.
Assay [24] addresses Casein kinase I isoform delta (Rattus norvegicus) (UniProt Q06486). Briefly: Inhibition of rat CK1delta at 10 uM.
For assay [25], the target named is Angiopoietin-1 receptor (Homo sapiens) (UniProt Q02763). The assay can be described thus: Inhibition of Tie2 at 10 uM.
Assay [26] deals with Insulin-like growth factor 1 receptor (Homo sapiens) (UniProt P08069). The assay can be described thus: Inhibition of IGF1R at 10 uM.
Assay [27] deals with Ephrin type-B receptor 4 (Homo sapiens) (UniProt P54760). Briefly: Inhibition of EphB4 at 10 uM.
Assay [28] has as its target Insulin receptor (Homo sapiens) (UniProt P06213). The assay can be described thus: Inhibition of insulin receptor at 10 uM.
Assay [29] addresses Tyrosine-protein kinase ZAP-70 (Homo sapiens) (UniProt P43403). The assay can be described thus: Inhibition of Zap70 at 10 uM.
Assay [30] concerns the target Serine/threonine-protein kinase Chk1 (Homo sapiens) (UniProt O14757). The assay can be described thus: Inhibition of CHK1 at 10 uM.
In assay [31] the target is RAC-gamma serine/threonine-protein kinase (Homo sapiens) (UniProt Q9Y243). The assay can be described thus: Inhibition of PKB gamma at 10 uM.
For assay [32], the target named is Tyrosine-protein kinase Fyn (Homo sapiens) (UniProt P06241). The assay can be described thus: Inhibition of Fyn at 10 uM.
The target of assay [33] is Proto-oncogene tyrosine-protein kinase Src (Homo sapiens) (UniProt P12931). Briefly: Inhibition of Src at 10 uM.
Assay [34] addresses Tyrosine-protein kinase SYK (Homo sapiens) (UniProt P43405). Briefly: Inhibition of Syk at 10 uM.
In assay [35] the target is RAC-beta serine/threonine-protein kinase (Homo sapiens) (UniProt P31751). Briefly: Inhibition of PKB beta at 10 uM.
The nature of assay [36]: Inhibition of PKA at 10 uM.
The species entered for the next assay is Mus musculus. Briefly: Inhibition of mouse MKK4 at 10 uM.
The target of assay [37] is Ribosomal protein S6 kinase beta-1 (Homo sapiens) (UniProt P23443). The assay can be described thus: Inhibition of P70S6K at 10 uM.
Assay [38] addresses 3-phosphoinositide-dependent protein kinase 1 (Homo sapiens) (UniProt O15530). Briefly: Inhibition of PDK1 at 10 uM.
Assay [39] deals with Tyrosine-protein kinase Lck (Homo sapiens) (UniProt P06239). The assay can be described thus: Inhibition of Lck at 10 uM.

Sequence of Tyrosine-protein kinase CSK (Homo sapiens) (P41240 2-450 limits assumed): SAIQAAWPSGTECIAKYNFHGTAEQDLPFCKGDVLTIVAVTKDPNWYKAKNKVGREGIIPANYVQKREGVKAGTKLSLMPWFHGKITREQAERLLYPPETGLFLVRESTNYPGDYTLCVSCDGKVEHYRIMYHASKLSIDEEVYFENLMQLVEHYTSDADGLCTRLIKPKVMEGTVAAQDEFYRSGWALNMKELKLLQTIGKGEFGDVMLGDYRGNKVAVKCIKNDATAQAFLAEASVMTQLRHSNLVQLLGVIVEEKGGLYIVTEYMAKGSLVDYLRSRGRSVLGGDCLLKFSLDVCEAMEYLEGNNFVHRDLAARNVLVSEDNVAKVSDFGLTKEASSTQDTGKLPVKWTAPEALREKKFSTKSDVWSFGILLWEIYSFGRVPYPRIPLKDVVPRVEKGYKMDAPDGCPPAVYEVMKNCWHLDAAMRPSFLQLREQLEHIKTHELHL
Sequence of Ribosomal protein S6 kinase beta-1 (Homo sapiens) (P23443 whole entry, looked up): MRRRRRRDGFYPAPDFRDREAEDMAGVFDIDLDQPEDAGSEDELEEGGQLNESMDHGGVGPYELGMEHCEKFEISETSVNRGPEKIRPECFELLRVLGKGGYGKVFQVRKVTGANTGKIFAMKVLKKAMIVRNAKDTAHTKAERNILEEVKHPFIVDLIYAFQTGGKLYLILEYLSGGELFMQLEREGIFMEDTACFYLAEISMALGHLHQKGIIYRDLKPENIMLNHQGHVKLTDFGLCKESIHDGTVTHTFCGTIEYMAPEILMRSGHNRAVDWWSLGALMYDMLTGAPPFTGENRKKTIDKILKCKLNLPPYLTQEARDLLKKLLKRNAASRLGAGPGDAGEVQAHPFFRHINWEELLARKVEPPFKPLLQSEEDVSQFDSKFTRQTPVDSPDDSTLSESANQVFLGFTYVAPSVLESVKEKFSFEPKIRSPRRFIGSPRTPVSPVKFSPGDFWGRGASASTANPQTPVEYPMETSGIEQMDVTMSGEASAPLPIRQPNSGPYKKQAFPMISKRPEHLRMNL
Sequence of Serine/threonine-protein kinase Chk1 (Homo sapiens) (O14757 whole entry): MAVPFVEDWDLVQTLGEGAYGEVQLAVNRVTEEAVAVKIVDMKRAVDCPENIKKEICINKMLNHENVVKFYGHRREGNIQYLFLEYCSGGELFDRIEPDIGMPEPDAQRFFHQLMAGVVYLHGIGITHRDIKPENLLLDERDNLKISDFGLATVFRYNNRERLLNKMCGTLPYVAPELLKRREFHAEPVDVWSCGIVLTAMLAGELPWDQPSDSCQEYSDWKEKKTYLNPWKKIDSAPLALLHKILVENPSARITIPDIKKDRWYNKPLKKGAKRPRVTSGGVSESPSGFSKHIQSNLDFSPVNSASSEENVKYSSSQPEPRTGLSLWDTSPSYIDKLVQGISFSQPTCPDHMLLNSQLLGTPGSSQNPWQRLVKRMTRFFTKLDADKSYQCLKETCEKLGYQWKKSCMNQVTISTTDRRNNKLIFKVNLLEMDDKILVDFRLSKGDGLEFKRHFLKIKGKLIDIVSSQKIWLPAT
Sequence of ALK tyrosine kinase receptor (Homo sapiens) (Q9UM73 19-1620 limits assumed): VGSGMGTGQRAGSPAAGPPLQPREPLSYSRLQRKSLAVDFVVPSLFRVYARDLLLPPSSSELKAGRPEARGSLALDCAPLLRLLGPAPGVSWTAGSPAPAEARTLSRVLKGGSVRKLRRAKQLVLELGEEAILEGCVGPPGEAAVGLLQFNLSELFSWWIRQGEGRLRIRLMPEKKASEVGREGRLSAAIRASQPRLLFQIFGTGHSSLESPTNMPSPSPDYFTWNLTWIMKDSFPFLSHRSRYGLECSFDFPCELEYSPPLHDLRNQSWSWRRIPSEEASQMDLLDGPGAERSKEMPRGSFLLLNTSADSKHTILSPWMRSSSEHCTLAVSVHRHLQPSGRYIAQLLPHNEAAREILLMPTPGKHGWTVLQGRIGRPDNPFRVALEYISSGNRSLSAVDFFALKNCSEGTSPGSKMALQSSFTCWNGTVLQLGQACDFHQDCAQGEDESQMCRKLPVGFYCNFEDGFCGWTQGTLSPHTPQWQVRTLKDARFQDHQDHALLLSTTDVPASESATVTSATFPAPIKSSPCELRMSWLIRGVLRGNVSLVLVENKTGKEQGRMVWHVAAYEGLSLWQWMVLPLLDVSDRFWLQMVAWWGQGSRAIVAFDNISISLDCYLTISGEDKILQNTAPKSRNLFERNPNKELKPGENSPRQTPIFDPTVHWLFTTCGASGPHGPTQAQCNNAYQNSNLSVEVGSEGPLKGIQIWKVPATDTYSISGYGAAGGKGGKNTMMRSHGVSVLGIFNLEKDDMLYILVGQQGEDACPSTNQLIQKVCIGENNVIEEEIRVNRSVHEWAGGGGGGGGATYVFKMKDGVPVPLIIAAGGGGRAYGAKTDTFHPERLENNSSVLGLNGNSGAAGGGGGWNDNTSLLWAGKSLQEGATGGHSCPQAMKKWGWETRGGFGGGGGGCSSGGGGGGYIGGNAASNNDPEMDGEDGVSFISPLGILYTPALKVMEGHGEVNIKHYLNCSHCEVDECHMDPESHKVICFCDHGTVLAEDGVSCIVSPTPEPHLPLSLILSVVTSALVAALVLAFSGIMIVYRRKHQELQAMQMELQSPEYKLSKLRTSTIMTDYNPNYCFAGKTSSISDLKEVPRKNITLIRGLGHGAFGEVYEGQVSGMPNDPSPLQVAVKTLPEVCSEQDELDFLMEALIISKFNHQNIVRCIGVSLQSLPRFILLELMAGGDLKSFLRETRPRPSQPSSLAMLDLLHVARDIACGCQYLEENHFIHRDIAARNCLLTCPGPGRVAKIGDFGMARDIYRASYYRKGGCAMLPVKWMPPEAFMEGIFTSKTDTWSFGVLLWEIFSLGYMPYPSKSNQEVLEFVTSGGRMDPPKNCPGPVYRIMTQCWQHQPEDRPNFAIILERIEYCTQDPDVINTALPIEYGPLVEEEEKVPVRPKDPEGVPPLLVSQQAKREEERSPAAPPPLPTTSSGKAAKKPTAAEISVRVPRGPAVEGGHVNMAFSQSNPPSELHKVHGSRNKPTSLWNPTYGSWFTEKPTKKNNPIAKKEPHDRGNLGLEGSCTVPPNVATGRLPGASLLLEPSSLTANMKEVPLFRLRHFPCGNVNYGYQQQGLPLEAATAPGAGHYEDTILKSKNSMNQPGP
Sequence of Casein kinase I isoform delta (Rattus norvegicus) (Q06486 whole entry, looked up, canonical isoform): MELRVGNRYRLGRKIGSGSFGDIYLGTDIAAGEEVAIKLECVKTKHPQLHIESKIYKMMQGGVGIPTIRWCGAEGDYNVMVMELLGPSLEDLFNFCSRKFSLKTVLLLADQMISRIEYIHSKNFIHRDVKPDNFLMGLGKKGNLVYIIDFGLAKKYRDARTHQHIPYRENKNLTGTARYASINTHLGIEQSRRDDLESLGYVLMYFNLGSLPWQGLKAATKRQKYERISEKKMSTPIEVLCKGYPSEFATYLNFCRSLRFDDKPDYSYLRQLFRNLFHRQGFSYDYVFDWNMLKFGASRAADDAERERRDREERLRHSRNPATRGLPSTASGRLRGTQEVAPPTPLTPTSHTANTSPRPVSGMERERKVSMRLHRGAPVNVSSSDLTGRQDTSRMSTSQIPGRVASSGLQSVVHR
Sequence of Dual specificity mitogen-activated protein kinase kinase 1 (Homo sapiens) (Q02750 whole entry): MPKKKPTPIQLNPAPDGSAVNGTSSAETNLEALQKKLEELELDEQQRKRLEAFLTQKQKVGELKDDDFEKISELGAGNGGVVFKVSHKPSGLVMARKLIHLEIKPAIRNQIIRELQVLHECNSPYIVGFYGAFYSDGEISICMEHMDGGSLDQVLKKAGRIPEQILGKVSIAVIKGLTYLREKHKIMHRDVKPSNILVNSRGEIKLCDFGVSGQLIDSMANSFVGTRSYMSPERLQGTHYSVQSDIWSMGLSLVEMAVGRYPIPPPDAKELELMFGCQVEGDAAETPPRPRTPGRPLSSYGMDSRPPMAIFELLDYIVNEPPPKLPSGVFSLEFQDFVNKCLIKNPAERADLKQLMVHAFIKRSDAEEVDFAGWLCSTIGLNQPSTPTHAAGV
Sequence of Tyrosine-protein kinase receptor UFO (Homo sapiens) (P30530 whole entry): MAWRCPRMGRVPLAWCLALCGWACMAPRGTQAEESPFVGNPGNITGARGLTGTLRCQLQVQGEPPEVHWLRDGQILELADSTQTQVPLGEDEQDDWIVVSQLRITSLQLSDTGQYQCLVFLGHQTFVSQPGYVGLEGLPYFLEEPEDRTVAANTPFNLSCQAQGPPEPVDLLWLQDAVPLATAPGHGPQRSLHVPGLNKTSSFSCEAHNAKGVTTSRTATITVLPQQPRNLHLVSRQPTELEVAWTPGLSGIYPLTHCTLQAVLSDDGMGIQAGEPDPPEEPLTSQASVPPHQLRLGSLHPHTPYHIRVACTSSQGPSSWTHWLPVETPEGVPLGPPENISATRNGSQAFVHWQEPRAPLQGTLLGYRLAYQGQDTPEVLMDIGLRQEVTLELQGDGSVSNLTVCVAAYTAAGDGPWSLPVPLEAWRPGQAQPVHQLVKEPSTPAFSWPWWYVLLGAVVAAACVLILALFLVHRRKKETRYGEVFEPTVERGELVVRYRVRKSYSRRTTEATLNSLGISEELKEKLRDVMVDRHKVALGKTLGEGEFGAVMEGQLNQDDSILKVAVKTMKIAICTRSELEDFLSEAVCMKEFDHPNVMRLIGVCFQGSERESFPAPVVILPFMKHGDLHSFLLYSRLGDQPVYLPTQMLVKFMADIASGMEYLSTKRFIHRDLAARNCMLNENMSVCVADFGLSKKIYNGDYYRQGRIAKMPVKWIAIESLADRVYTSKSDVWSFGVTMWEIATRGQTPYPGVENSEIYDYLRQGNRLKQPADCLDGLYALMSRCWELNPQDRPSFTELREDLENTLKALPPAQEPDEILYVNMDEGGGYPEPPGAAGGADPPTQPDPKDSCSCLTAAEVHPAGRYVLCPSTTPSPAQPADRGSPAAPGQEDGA

Turning to `CN1CCN(c2cccc3[nH]c(-c4n[nH]c5cc(-c6cccc(N)c6)ccc45)nc23)CC1`, the Ratio IC50 in the assay listed under Homo sapiens was found to be 4. Further, the half-maximal inhibitory concentration (IC50) was 1.51 µM in assay [1] and 6.1 µM in [2].

Compound `COc1cc(-c2ccc3c(-c4nc5c(N6CCN(C)CC6)cccc5[nH]4)n[nH]c3c2)ccc1N` returned an IC50 in assay [2] of 0.247 µM.

For `COc1ccccc1-c1ccc2c(-c3nc4c(N5CCN(C)CC5)cccc4[nH]3)n[nH]c2c1`, the Ratio IC50 in the assay filed under Homo sapiens was found to be 1.8. For the same compound, the values for the IC50 in assay [1] and in assay [2] were 5.52 µM and 10 µM, respectively.

`COc1cc(-c2ccc3c(-c4nc5c(N6CCN(C)CC6)cccc5[nH]4)n[nH]c3c2)ccc1O`: the Ratio IC50 in the assay listed under Homo sapiens is 1.8. Also, the IC50 in assay [1] came out at 0.00226 µM; in assay [2], 0.0041 µM.

For the compound `CN1CCN(c2cccc3[nH]c(-c4n[nH]c5cc(-c6ccc(CN)cc6)ccc45)nc23)CC1`, the IC50 in assay [2] was 10 µM.

Consider `O=C(NC1CC1)c1n[nH]c2cc(-c3ccc(O)cc3)c(Br)cc12`, for which the IC50 was found to be 0.0008 µM in assay [3] and 0.005 µM in assay [2].

In turn, `CN1CCN(c2cccc3[nH]c(-c4n[nH]c5cc(-c6ccc(CO)cc6)ccc45)nc23)CC1` returned an IC50 in [2] of 21.5 µM.

Regarding `CN1CCN(c2cccc3[nH]c(-c4n[nH]c5cc(-c6ccc(N)c(F)c6)ccc45)nc23)CC1`, half-maximal inhibition in [2] (IC50) required 1.73 µM.

As for `CN1CCN(c2cccc3[nH]c(-c4n[nH]c5cc(-c6ccc7c[nH]nc7c6)ccc45)nc23)CC1`, in assay [1], 1.07 µM corresponded to half-maximal inhibition (IC50).

For the compound `CN1CCN(c2cccc3[nH]c(-c4n[nH]c5cc(-c6ccc7[nH]ccc7c6)ccc45)nc23)CC1`, the Ratio IC50 in the assay listed under Homo sapiens worked out at 2.5. Moreover, the results for the IC50 in assay [1] and in [2] were 4.08 µM and 10 µM, respectively.

In assay [2], `CNc1ccc(-c2ccc3c(-c4nc5c(N6CCN(C)CC6)cccc5[nH]4)n[nH]c3c2)cc1` came in with an IC50 of 109 µM.

For the compound `COc1cc(F)ccc1-c1ccc2c(-c3nc4c(N5CCN(C)CC5)cccc4[nH]3)n[nH]c2c1`, the Ratio IC50 in the assay filed under Homo sapiens was 0.5. For the same compound, the IC50 is 19 µM in assay [1] and 10 µM in assay [2].

Take `CC(=O)c1ccc(-c2ccc3c(-c4nc5c(N6CCN(C)CC6)cccc5[nH]4)n[nH]c3c2)cc1`: in assay [2], the midpoint of inhibition, the IC50, lay at 10 µM.

`CN1CCN(c2cccc3[nH]c(-c4n[nH]c5cc(-c6ccc(C(=O)O)cc6)ccc45)nc23)CC1` yielded a half-inhibitory concentration (IC50) in [2] of 10 µM.

On to `CN1CCN(c2cccc3[nH]c(-c4n[nH]c5cc(-c6ccc(N(C)C)cc6)ccc45)nc23)CC1`, for which, in assay [1], the IC50 was 1.31 µM.

The compound `CN1CCN(c2cccc3[nH]c(-c4n[nH]c5cc(-c6ccc(O)cc6)ccc45)nc23)CC1` registered an IC50 in assay [2] of 0.0133 µM.

Consider `COc1cc(O)ccc1-c1ccc2c(-c3nc4c(N5CCN(C)CC5)cccc4[nH]3)n[nH]c2c1`, for which the inhibition in assay [4], in assay [5], in [6], in assay [7], in assay [8] and in assay [9] was < 50% in each case. The inhibition in assay [10], in [11], in assay [12], in assay [13], in [14] and in assay [15] was < 50% in each case. For the same compound, the inhibition in assay [16], in [17], in assay [18], in assay [19], in [20] and in assay [21] was < 50% throughout. Moreover, the inhibition in [22], in assay [23], in assay [24], in [25], in [26] and in [27] was < 50% in each case. Also, the inhibition in assay [28], in assay [29], in assay [30], in assay [31], in assay [32] and in assay [33] was < 50% throughout. For the same compound, the inhibition (in [34]; in [35]; in [36]; in the assay listed under Mus musculus; in assay [37]; in [38]) was < 50% throughout. Further, the inhibition in assay [39] was < 50%. Also, in assay [2], the IC50 is 0.102 µM.

Turning to `CC(=O)Nc1ccc(-c2ccc3c(-c4nc5c(N6CCN(C)CC6)cccc5[nH]4)n[nH]c3c2)cc1`, the Ratio IC50 in the assay listed under Homo sapiens was 1.1. The IC50 in assay [1] is 8.8 µM; in [2], 10 µM.

For the compound `COc1ccc(-c2ccc3c(-c4nc5c(N6CCN(C)CC6)cccc5[nH]4)n[nH]c3c2)c(OC)c1`, the IC50 in assay [2] was 10 µM.

For the compound `CN1CCN(c2cccc3nc(-c4n[nH]c5cc(-c6ccc(N)cc6)ccc45)[nH]c23)CC1`, the inhibition in assay [4], in [5], in assay [6], in [7], in assay [8] and in [9] was < 50% throughout. Further, the inhibition in [10], in [11], in assay [12], in [13], in [14] and in assay [15] was < 50% each time. Also, the inhibition in assay [16], in [17], in [18], in assay [19], in [20] and in [21] was < 50% in each case. Further, the inhibition in assay [22], in [23], in assay [24], in assay [25], in assay [26] and in assay [27] was < 50% throughout. For the same compound, the inhibition in assay [28], in [29], in [30], in assay [31], in assay [32] and in assay [33] was < 50% each time. Also, the inhibition (in assay [34]; in assay [35]; in assay [36]; in the assay listed under Mus musculus; in assay [37]; in assay [38]) was < 50% each time. Also, the inhibition in assay [39] is < 50%.

`CN1CCN(c2cccc3[nH]c(-c4n[nH]c5cc(-c6ccc(S(N)(=O)=O)cc6)ccc45)nc23)CC1`: the IC50 in [1] is 8.93 µM.

By IC50 is commonly meant the concentration that inhibits the measured activity by half. Higher therefore signals a need for much substance. The term inhibition denotes the share of the control response that was lost under treatment.
